Laboratory results from ChEMBL document CHEMBL3885881, “DrugMatrix”.

Species on record: Rattus norvegicus
Experiment: DrugMatrix - Regimen: Daily Repeat
Type: toxicity, organism-based, Sprague-Dawley
Set-up: regimen Daily Repeat, gender Male, age 6-8 weeks
Conditions: in vivo, iv, 50 mg/kg, dose level Low, vehicle 100 % SALINE; for ABSOLUTE BASOPHIL / ABSOLUTE EOSINOPHIL / ABSOLUTE LYMPHOCYTE / ABSOLUTE MONOCYTE / ABSOLUTE SEGMENTED NEUTROPHIL / BASOPHIL / EOSINOPHIL / ERYTHROCYTE COUNT / HEMATOCRIT / HEMOGLOBIN / LEUKOCYTE COUNT / LYMPHOCYTE / MEAN CORPUSCULAR HEMOGLOBIN / MEAN CORPUSCULAR HEMOGLOBIN CONCENTRATION / MEAN CORPUSCULAR VOLUME / MONOCYTE / NEUTROPHIL / NUCLEATED RED BLOOD CELLS / PLATELET COUNT: tissue Blood; for ALANINE AMINOTRANSFERASE / ALBUMIN / ALKALINE PHOSPHATASE / ASPARTATE AMINOTRANSFERASE / BLOOD UREA NITROGEN / CARBON DIOXIDE / CHLORIDE / CHOLESTEROL / CREATINE PHOSPHOKINASE / CREATININE / GLUCOSE / LACTATE DEHYDROGENASE / LIPASE / PHOSPHORUS / POTASSIUM / SODIUM / TOTAL BILIRUBIN / TOTAL PROTEIN / URIC ACID: tissue Plasma

CC1(C)S[C@@H]2[C@H](NC(=O)Cc3ccccc3)C(=O)N2[C@H]1C(=O)O [PENICILLIN G]
ABSOLUTE BASOPHIL (72 h, time 3 day): 0 CELLS/uL | ABSOLUTE EOSINOPHIL (72 h, time 3 day): 74.67 CELLS/uL | ABSOLUTE LYMPHOCYTE (72 h, time 3 day): 13141.67 CELLS/uL | ABSOLUTE MONOCYTE (72 h, time 3 day): 398.33 CELLS/uL | ABSOLUTE SEGMENTED NEUTROPHIL (72 h, time 3 day): 1318.67 CELLS/uL | BASOPHIL (72 h, time 3 day): 0% | EOSINOPHIL (72 h, time 3 day): 0.67% | ERYTHROCYTE COUNT (72 h, time 3 day): 5.85 x10E6/uL | HEMATOCRIT (72 h, time 3 day): 37.47% | HEMOGLOBIN (72 h, time 3 day): 13.8 G/DL | LEUKOCYTE COUNT (72 h, time 3 day): 14.93 x10E3/uL | LYMPHOCYTE (72 h, time 3 day): 87.67% | MEAN CORPUSCULAR HEMOGLOBIN (72 h, time 3 day): 23.6 pg | MEAN CORPUSCULAR HEMOGLOBIN CONCENTRATION (72 h, time 3 day): 36.87 G/DL | MEAN CORPUSCULAR VOLUME (72 h, time 3 day): 64.07 fL | MONOCYTE (72 h, time 3 day): 2.67% | NEUTROPHIL (72 h, time 3 day): 9% | NUCLEATED RED BLOOD CELLS (72 h, time 3 day): 0 /100WBC | PLATELET COUNT (72 h, time 3 day): 1362 x10E3/uL | ALANINE AMINOTRANSFERASE (72 h, time 3 day): 56.33 u/L | ALBUMIN (72 h, time 3 day): 4.37 G/DL | ALKALINE PHOSPHATASE (72 h, time 3 day): 354 u/L | ASPARTATE AMINOTRANSFERASE (72 h, time 3 day): 76.67 u/L | BLOOD UREA NITROGEN (72 h, time 3 day): 13.33 mg/dL | CARBON DIOXIDE (72 h, time 3 day): 24.33 mmol/L | CHLORIDE (72 h, time 3 day): 103.67 MEQ/L | CHOLESTEROL (72 h, time 3 day): 82.67 mg/dL | CREATINE PHOSPHOKINASE (72 h, time 3 day): 122 u/L | CREATININE (72 h, time 3 day): 0.21 mg/dL | GLUCOSE (72 h, time 3 day): 172 mg/dL | LACTATE DEHYDROGENASE (72 h, time 3 day): 124 u/L | LIPASE (72 h, time 3 day): 10 u/L | PHOSPHORUS (72 h, time 3 day): 12.63 mg/dL | POTASSIUM (72 h, time 3 day): 6.23 MEQ/L | SODIUM (72 h, time 3 day): 146.33 MEQ/L | TOTAL BILIRUBIN (72 h, time 3 day): 0.23 mg/dL | TOTAL PROTEIN (72 h, time 3 day): 6.07 G/DL | URIC ACID (72 h, time 3 day): 1.57 mg/dL | ABSOLUTE BASOPHIL (120 h, time 5 day): 0 CELLS/uL | ABSOLUTE EOSINOPHIL (120 h, time 5 day): 0 CELLS/uL | ABSOLUTE LYMPHOCYTE (120 h, time 5 day): 11488.33 CELLS/uL | ABSOLUTE MONOCYTE (120 h, time 5 day): 166 CELLS/uL | ABSOLUTE SEGMENTED NEUTROPHIL (120 h, time 5 day): 512.33 CELLS/uL | BASOPHIL (120 h, time 5 day): 0% | EOSINOPHIL (120 h, time 5 day): 0% | ERYTHROCYTE COUNT (120 h, time 5 day): 5.58 x10E6/uL | HEMATOCRIT (120 h, time 5 day): 36.13% | HEMOGLOBIN (120 h, time 5 day): 13.43 G/DL | LEUKOCYTE COUNT (120 h, time 5 day): 12.17 x10E3/uL | LYMPHOCYTE (120 h, time 5 day): 94.33% | MEAN CORPUSCULAR HEMOGLOBIN (120 h, time 5 day): 24.07 pg | MEAN CORPUSCULAR HEMOGLOBIN CONCENTRATION (120 h, time 5 day): 37.17 G/DL | MEAN CORPUSCULAR VOLUME (120 h, time 5 day): 64.8 fL | MONOCYTE (120 h, time 5 day): 1.33% | NEUTROPHIL (120 h, time 5 day): 4.33% | NUCLEATED RED BLOOD CELLS (120 h, time 5 day): 0 /100WBC | PLATELET COUNT (120 h, time 5 day): 1442 x10E3/uL | ALANINE AMINOTRANSFERASE (120 h, time 5 day): 49.33 u/L | ALBUMIN (120 h, time 5 day): 4.27 G/DL | ALKALINE PHOSPHATASE (120 h, time 5 day): 371 u/L | ASPARTATE AMINOTRANSFERASE (120 h, time 5 day): 81.33 u/L | BLOOD UREA NITROGEN (120 h, time 5 day): 15.33 mg/dL | CARBON DIOXIDE (120 h, time 5 day): 21.67 mmol/L | CHLORIDE (120 h, time 5 day): 107 MEQ/L | CHOLESTEROL (120 h, time 5 day): 79.33 mg/dL | CREATINE PHOSPHOKINASE (120 h, time 5 day): 245.67 u/L | CREATININE (120 h, time 5 day): 0.42 mg/dL | GLUCOSE (120 h, time 5 day): 151.67 mg/dL | LACTATE DEHYDROGENASE (120 h, time 5 day): 117.67 u/L | LIPASE (120 h, time 5 day): 11.5 u/L | PHOSPHORUS (120 h, time 5 day): 12.33 mg/dL | POTASSIUM (120 h, time 5 day): 6.79 MEQ/L | SODIUM (120 h, time 5 day): 144.2 MEQ/L | TOTAL BILIRUBIN (120 h, time 5 day): 0.23 mg/dL | TOTAL PROTEIN (120 h, time 5 day): 6.07 G/DL | URIC ACID (120 h, time 5 day): 2 mg/dL
